Measured values taken from publication PMC12587545, “Noncytotoxic polymyxin derivatives enhance antibiotic action against multidrug-resistant Gram-negative bacteria” (Antimicrobial Agents and Chemotherapy, 2025).
“And” between values parts separate entries of the source, which are not always exact repeats. Equal values may be shown once.

Tests used:
P. aeruginosa = assay: Checkerboard assay (antibiotic potentiation); type: cell-based, Pseudomonas aeruginosa; conditions: for MICantibiotic: antibiotic alone
A. baumannii = assay: Checkerboard assay (antibiotic potentiation); type: cell-based, Acinetobacter baumannii; conditions: for MICantibiotic: antibiotic alone
E. coli = assay: Checkerboard assay (antibiotic potentiation); type: cell-based, Escherichia coli; conditions: for Interpretation: antibiotic + compound 1; for MICantibiotic + compound: antibiotic MIC with 8 µg/mL (5 µM) compound 1; for MICantibiotic: antibiotic alone; for Potentiation: of antibiotic by 8 µg/mL (5 µM) compound 1
K. pneumoniae = assay: Checkerboard assay (antibiotic potentiation); type: cell-based, Klebsiella pneumoniae; conditions: for Interpretation: antibiotic + compound 1; for MICantibiotic + compound: antibiotic MIC with 8 µg/mL (5 µM) compound 1; for MICantibiotic: antibiotic alone; for Potentiation: of antibiotic by 8 µg/mL (5 µM) compound 1
E. cloacae = assay: Checkerboard assay (antibiotic potentiation); type: cell-based, Enterobacter cloacae; conditions: E. cloacae 121887 (colistin-resistant)
E. faecalis ATCC 29212 = assay: Checkerboard assay (rifampicin potentiation); type: cell-based
Protocol: (§1) The interaction between the compounds and the antibiotics was evaluated using the fractional inhibitory concentration (FIC) index. FIC indices of ≤0.5 is synergistic, 0.5 < × ≤ 4 is additive, whereas >4 is antagonistic ([34]). […] .
(§2) The bacterial isolates were acquired from ATCC or the Canadian Ward Surveillance (CANWARD) study ([56]). CANWARD isolates were collected from infected patients admitted to participating medical centers across Canada.
(§3) The antibiotic and compounds were serially diluted 2-fold in CAMHB along the x- and y-axis, respectively, on a 96-well plate that was subsequently incubated with equal volumes of bacterial inoculum overnight at 37°C. Wells containing only media were used as negative controls, and wells containing only bacteria were used as positive controls. Synergy was measured by the FIC index, which is the summation of the individual FICs of the antibiotic and the compound. The FIC is calculated by dividing the MIC of one agent in the presence of another by the MIC of the agent alone. Turbidity was confirmed with a Molecular Devices (United States) EMax Plus microplate reader at a wavelength of 590 nm. The FBS studies were conducted by following a previously published protocol ([29], [50]). The FBS was inactivated by heating at 56°C for 30 min with constant swirling.

E. faecium ATCC 27270 = assay: Checkerboard assay (rifampicin potentiation); type: cell-based
Protocol: as §1, §2, §3

[1] = tested on: Methicillin-resistant S. aureus ATCC 22592; assay: Checkerboard assay (rifampicin potentiation); type: cell-based; conditions: MRSA ATCC 22592
Protocol: as §1, §2, §3

[2] = tested on: MDR Gram-negative bacteria clinical isolates; assay: Checkerboard assay, summary over strains; type: cell-based; conditions: of all 14 clinical isolates; number (%)
[3] = E. coli 94393 (colistin-resistant)
[4] = E. coli 94474 (colistin-resistant)
[5] = K. pneumoniae 113250 (colistin-resistant)
[6] = of rifampicin by 8 µg/mL (5 µM) compound 1
[7] = rifampicin MIC with 8 µg/mL (5 µM) compound 1

Question: Which results are given for `CO[C@H]1/C=C/O[C@@]2(C)Oc3c(C)c(O)c4c(O)c(c(/C=N/N5CCN(C)CC5)c(O)c4c3C2=O)NC(=O)/C(C)=C\C=C\[C@H](C)[C@H](O)[C@@H](C)[C@@H](O)[C@@H](C)[C@H](OC(C)=O)[C@@H]1C` [Rifampicin]?
Answer: Interpretation (P. aeruginosa; P. aeruginosa 259-96916, antibiotic + compound 1): Synergy (FIC indices of ≤0.5 is synergistic); MICantibiotic + compound (P. aeruginosa; P. aeruginosa 259-96916, antibiotic MIC with 8 µg/mL (5 µM) compound 1): 0.031 µg/mL; MICantibiotic (P. aeruginosa; P. aeruginosa 259-96916): 16 µg/mL; Potentiation (P. aeruginosa; P. aeruginosa 259-96916, of antibiotic by 8 µg/mL (5 µM) compound 1): ≥512-fold; Interpretation (P. aeruginosa; P. aeruginosa 262-101856, antibiotic + compound 1): Synergy (FIC indices of ≤0.5 is synergistic); MICantibiotic + compound (P. aeruginosa; P. aeruginosa 262-101856, antibiotic MIC with 8 µg/mL (5 µM) compound 1): 2 µg/mL; MICantibiotic (P. aeruginosa; P. aeruginosa 262-101856): 512 µg/mL; Potentiation (P. aeruginosa; P. aeruginosa 262-101856, of antibiotic by 8 µg/mL (5 µM) compound 1): 256 fold; Interpretation (P. aeruginosa; P. aeruginosa 264-105354, antibiotic + compound 1): Synergy (FIC indices of ≤0.5 is synergistic); MICantibiotic (P. aeruginosa; P. aeruginosa 264-105354): 32 µg/mL; Potentiation (P. aeruginosa; P. aeruginosa 264-105354, of antibiotic by 8 µg/mL (5 µM) compound 1): ≥256-fold; Interpretation (P. aeruginosa; P. aeruginosa 101243 (colistin-resistant), antibiotic + compound 1): Synergy (FIC indices of ≤0.5 is synergistic); MICantibiotic + compound (P. aeruginosa; P. aeruginosa 101243 (colistin-resistant), antibiotic MIC with 8 µg/mL (5 µM) compound 1): 2 µg/mL; MICantibiotic (P. aeruginosa; P. aeruginosa 101243 (colistin-resistant)): 16 µg/mL; Potentiation (P. aeruginosa; P. aeruginosa 101243 (colistin-resistant), of antibiotic by 8 µg/mL (5 µM) compound 1): 8 fold; Interpretation (P. aeruginosa; P. aeruginosa 114228 (colistin-resistant), antibiotic + compound 1): Additive (0.5 < × ≤ 4 is additive); MICantibiotic + compound (P. aeruginosa; P. aeruginosa 114228 (colistin-resistant), antibiotic MIC with 8 µg/mL (5 µM) compound 1): 8 µg/mL; MICantibiotic (P. aeruginosa; P. aeruginosa 114228 (colistin-resistant)): 16 µg/mL; Potentiation (P. aeruginosa; P. aeruginosa 114228 (colistin-resistant), of antibiotic by 8 µg/mL (5 µM) compound 1): 2 fold; Interpretation (P. aeruginosa; P. aeruginosa PAO1, antibiotic + compound 1): Synergy (FIC indices of ≤0.5 is synergistic); Interpretation (P. aeruginosa; P. aeruginosa PAO1, antibiotic + compound 3): Additive (0.5 < × ≤ 4 is additive); MICantibiotic + compound (P. aeruginosa; P. aeruginosa PAO1, antibiotic MIC with 8 µg/mL (5 µM) compound 1): 0.063 µg/mL; MICantibiotic + compound (P. aeruginosa; P. aeruginosa PAO1, antibiotic MIC with 8 µg/mL (5 µM) compound 3): 32 µg/mL; MICantibiotic (P. aeruginosa; P. aeruginosa PAO1): 16 µg/mL and 32 µg/mL; Potentiation (P. aeruginosa; P. aeruginosa PAO1, of antibiotic by 8 µg/mL (5 µM) compound 1): ≥256-fold; Potentiation (P. aeruginosa; P. aeruginosa PAO1, of antibiotic by 8 µg/mL (5 µM) compound 3): 1 fold; Interpretation (A. baumannii; A. baumannii 92247 (colistin-resistant), antibiotic + compound 1): Synergy (FIC indices of ≤0.5 is synergistic); MICantibiotic + compound (A. baumannii; A. baumannii 92247 (colistin-resistant), antibiotic MIC with 4 µg/mL (2 µM) compound 1): 0.031 µg/mL; MICantibiotic (A. baumannii; A. baumannii 92247 (colistin-resistant)): 4 µg/mL; Potentiation (A. baumannii; A. baumannii 92247 (colistin-resistant), of antibiotic by 4 µg/mL (2 µM) compound 1): 128 fold; Interpretation (A. baumannii; A. baumannii 110193, antibiotic + compound 1): Synergy (FIC indices of ≤0.5 is synergistic); MICantibiotic + compound (A. baumannii; A. baumannii 110193, antibiotic MIC with 4 µg/mL (2 µM) compound 1): 0.004 µg/mL; MICantibiotic (A. baumannii; A. baumannii 110193): 4 µg/mL; Potentiation (A. baumannii; A. baumannii 110193, of antibiotic by 4 µg/mL (2 µM) compound 1): ≥1024-fold; Interpretation (A. baumannii; A. baumannii AB027, antibiotic + compound 1): Synergy (FIC indices of ≤0.5 is synergistic); MICantibiotic + compound (A. baumannii; A. baumannii AB027, antibiotic MIC with 4 µg/mL (2 µM) compound 1): 0.004 µg/mL; MICantibiotic (A. baumannii; A. baumannii AB027): 2 µg/mL; Potentiation (A. baumannii; A. baumannii AB027, of antibiotic by 4 µg/mL (2 µM) compound 1): ≥512-fold; Interpretation (A. baumannii; A. baumannii AB031, antibiotic + compound 1): Synergy (FIC indices of ≤0.5 is synergistic); MICantibiotic + compound (A. baumannii; A. baumannii AB031, antibiotic MIC with 4 µg/mL (2 µM) compound 1): 0.004 µg/mL; MICantibiotic (A. baumannii; A. baumannii AB031): 4 µg/mL; Potentiation (A. baumannii; A. baumannii AB031, of antibiotic by 4 µg/mL (2 µM) compound 1): ≥1024-fold; Interpretation (A. baumannii; A. baumannii ATCC 17978, antibiotic + compound 1): Synergy (FIC indices of ≤0.5 is synergistic); Interpretation (A. baumannii; A. baumannii ATCC 17978, antibiotic + compound 3): Additive (0.5 < × ≤ 4 is additive); MICantibiotic + compound (A. baumannii; A. baumannii ATCC 17978, antibiotic MIC with 8 µg/mL (5 µM) compound 3): 2 µg/mL; MICantibiotic + compound (A. baumannii; A. baumannii ATCC 17978, antibiotic MIC with ¼ MIC (≤5 µM) of compound 1): 0.016 µg/mL; MICantibiotic (A. baumannii; A. baumannii ATCC 17978): 8 µg/mL and 4 µg/mL; Potentiation (A. baumannii; A. baumannii ATCC 17978, of antibiotic by 8 µg/mL (5 µM) compound 3): 2 fold; Potentiation (A. baumannii; A. baumannii ATCC 17978, of antibiotic by ¼ MIC (≤5 µM) of compound 1): ≥512-fold; Interpretation (E. coli; [3]): Synergy (FIC indices of ≤0.5 is synergistic); MICantibiotic + compound (E. coli; [3]): 0.5 µg/mL; MICantibiotic (E. coli; [3]): >16 µg/mL; Potentiation (E. coli; [3]): ≥32-fold; Interpretation (E. coli; [4]): Synergy (FIC indices of ≤0.5 is synergistic); MICantibiotic + compound (E. coli; [4]): 0.5 µg/mL; MICantibiotic (E. coli; [4]): 8 µg/mL; Potentiation (E. coli; [4]): 16 fold; Interpretation (K. pneumoniae; [5]): Synergy (FIC indices of ≤0.5 is synergistic); MICantibiotic + compound (K. pneumoniae; [5]): 2 µg/mL; MICantibiotic (K. pneumoniae; [5]): 32 µg/mL; Potentiation (K. pneumoniae; [5]): 16 fold; Interpretation (K. pneumoniae; K. pneumoniae 116381): Synergy (FIC indices of ≤0.5 is synergistic); MICantibiotic + compound (K. pneumoniae; K. pneumoniae 116381): 0.25 µg/mL; MICantibiotic (K. pneumoniae; K. pneumoniae 116381): >256 µg/mL; Potentiation (K. pneumoniae; K. pneumoniae 116381): ≥2048-fold; Interpretation (E. cloacae; antibiotic + compound 1): Synergy (FIC indices of ≤0.5 is synergistic); MICantibiotic + compound (E. cloacae; antibiotic MIC with 8 µg/mL (5 µM) compound 1): 1 µg/mL; MICantibiotic (E. cloacae; antibiotic alone): >4 µg/mL; Potentiation (E. cloacae; of antibiotic by 8 µg/mL (5 µM) compound 1): ≥8-fold; Potentiation (E. faecalis ATCC 29212; [6]): 1 fold; Interpretation (E. faecalis ATCC 29212; rifampicin + compound 1): Additive (0.5 < × ≤ 4 is additive); MICantibiotic + compound (E. faecalis ATCC 29212; [7]): 0.5 µg/mL; MICantibiotic (E. faecalis ATCC 29212; rifampicin alone): 0.5 µg/mL; Potentiation (E. faecium ATCC 27270; [6]): 1 fold; Interpretation (E. faecium ATCC 27270; rifampicin + compound 1): Additive (0.5 < × ≤ 4 is additive); MICantibiotic + compound (E. faecium ATCC 27270; [7]): 0.031 µg/mL; MICantibiotic (E. faecium ATCC 27270; rifampicin alone): 0.031 µg/mL; Potentiation [1, 6]: 1 fold; Interpretation ([1]; rifampicin + compound 1): Additive (0.5 < × ≤ 4 is additive); MICantibiotic + compound [1, 7]: 512 µg/mL; MICantibiotic ([1]; rifampicin alone): 512 µg/mL; clinical isolates in which the antibiotic was synergized by compound 1 [2]: 13 (93%) strains
